In this test the target is T1, human DGAT2 (hDGAT2) (Homo sapiens, UniProt Q96PD7).
T1 construct: made in house; host or cells: Sf-9 insect cells (baculovirus), membrane fraction
T1 sequence (Q96PD7 1-388): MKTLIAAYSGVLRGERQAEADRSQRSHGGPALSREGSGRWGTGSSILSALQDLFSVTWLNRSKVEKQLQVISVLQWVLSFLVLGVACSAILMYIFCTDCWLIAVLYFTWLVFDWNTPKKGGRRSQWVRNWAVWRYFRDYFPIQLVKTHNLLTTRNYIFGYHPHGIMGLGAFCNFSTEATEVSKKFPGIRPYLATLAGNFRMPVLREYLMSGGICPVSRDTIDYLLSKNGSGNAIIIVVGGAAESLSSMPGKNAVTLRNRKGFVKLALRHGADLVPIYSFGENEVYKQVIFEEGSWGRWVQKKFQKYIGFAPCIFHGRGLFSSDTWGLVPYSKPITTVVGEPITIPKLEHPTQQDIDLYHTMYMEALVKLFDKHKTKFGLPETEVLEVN
Description: DGAT2 Enzymatic Activity Assay. The settings on record: membrane prep of Sf-9 cells expressing hDGAT2; 13C18-triolein product by LC/MS/MS; 25 μM diolein, 5 μM 13C oleoyl-CoA, rt. In kind it is biochemical. How it is done:
Sf-9 insect cells were maintained in Grace's insect cell culture medium with 10% heated-inactivated fetal bovine serum, 1% Pluronic F-68 and 0.14 μg/ml Kanamycine sulfate at 27° C. in a shaker incubator. After infection with untagged baculovirus expressing human DGAT2 (hDGAT2) at multiplicity of infection (MOI) 3 for 48 hours, cells were harvested. Cell pellets were suspended in buffer containing 10 mM Tris-HCl pH 7.5, 1 mM EDTA, 250 mM sucrose and Complete Protease Inhibitor Cocktail (Sigma Aldrich), and sonicated on ice. Cell debris were removed by centrifugation at 2000×g for 15 minutes. Membrane fractions were isolated by ultracentrifugation (100,000×g), resuspended in the same buffer, and frozen (−80° C.) for later use. The protein concentration was determined with the Pierce™ BCA Protein Assay Kit (Thermo Fisher Scientific).
LC/MS/MS analyses were performed using Thermal Fisher's LX4-TSQ Vantage system. This system consists of an Agilent binary high-performance liquid chromatography (HPLC) pump and a TSQ Vantage triple quadrupole MS/MS instrument. For each sample, 2 μL samples from the top organic layer of in-plate liquid-liquid extraction were injected onto a Thermo Betabasic C4 column (2.1 mm×20 mm, 5 μm particle size). The samples were then eluted using the following conditions; mobile phase: Isopropanol:acetonitrile/10 mM ammonium formate=50/35/15 (v/v/v), flow rate: 0.8 mL/min, temperature: 25° C. Data was acquired in positive mode using a heated electrospray ionization (HESI) interface. The operational parameters for the TSQ Vantage MS/MS instrument were a spray voltage of 3000 V, capillary temperature of 280° C., vaporizer temperature 400° C., sheath gas 45 arbitrary unit. Aux gas 10 arbitrary units. […] The peak area was integrated by Xcalibur Quan software. The ratio between the ^13C18 triolein generated in the reaction and spiked in internal standard ^13C21-triolein was used to generate percentage inhibition and IC50 values. Compound percentage inhibition was calculated by the following formula: Inhibition %=1−[(compound response−low control)/(high control−low control)]×100%.
DGAT2 activity was determined by measuring the amount of enzymatic product ^13C18-triolein (^13C-1,2,3-Tri(cis-9-octadecenoyl)glycerol) using the membrane prep mentioned above. The assay was carried out in ABgene 384-well assay plates in a final volume of 25 μL at rt.

Some results are limits rather than exact numbers.

Broadly, the IC50 is the concentration that gives 50% inhibition. `CCOc1cccnc1Oc1ccc2nc(C(=O)Nc3cccnc3)cn2c1` [Example 54, 6-[(3-ethoxy-2-pyridyl)oxy]-N-(3-pyridyl)imidazo[1,2-a]pyridine-2-carboxamide] registered an IC50 of 850 nM.
Under `CC(C)c1c(Oc2ncc(Cl)cc2OCC(F)(F)F)ccc2nc(C(=O)NC3(C)CS(=O)(=O)C3)cn12` [Example 55, 6-[[5-chloro-3-(2,2,2-trifluoroethoxy)-2-pyridyl]oxy]-5-isopropyl-N-(3-methyl-1,1-dioxo-thietan-3-yl)imidazo[1,2-a]pyridine-2-carboxamide] stands 89 nM.
Compound `CC1(NC(=O)c2cn3cc(Oc4ncccc4OCC(F)(F)F)cc(C(F)(F)F)c3n2)CCS(=O)(=O)CC1` [Example 56, N-(4-methyl-1,1-dioxo-thian-4-yl)-6-[[3-(2,2,2-trifluoroethoxy)-2-pyridyl]oxy]-8-(trifluoromethyl)imidazo[1,2-a]pyridine-2-carboxamide] showed an IC50 of over 9990 nM.
Consider `CCOc1cccnc1Oc1ccc2nc(C(=O)Nc3ccc(C)nn3)cn2c1` [Example 57, 6-[(3-ethoxy-2-pyridyl)oxy]-N-(6-methylpyridazin-3-yl)imidazo[1,2-a]pyridine-2-carboxamide], for which the IC50 stood at 1110 nM.
Regarding `CCC(F)(F)c1cccnc1Oc1ccc2nc(C(=O)NC3(C)CCS(=O)(=O)CC3)cn2c1` [Example 58, 6-[[3-(1,1-difluoropropyl)-2-pyridyl]oxy]-N-(4-methyl-1,1-dioxo-thian-4-yl)imidazo[1,2-a]pyridine-2-carboxamide], the IC50 worked out at 262 nM.
Under `CCc1cc2nc(C(=O)NC3(C)CCS(=O)(=O)CC3)cn2cc1Oc1ncc(Cl)cc1OCC(F)(F)F` [Example 59, 6-((5-Chloro-3-(2,2,2-trifluoroethoxy)pyridin-2-yl)oxy)-7-ethyl-N-(4-methyl-1,1-dioxidotetrahydro-2H-thiopyran-4-yl)imidazo[1,2-a]pyridine-2-carboxamide] stands 9 nM; under `CC1(NC(=O)c2cn3cc(Oc4ncccc4O)ccc3n2)CCS(=O)(=O)CC1` [Example 60, 6-[(3-hydroxy-2-pyridyl)oxy]-N-(4-methyl-1,1-dioxo-thian-4-yl)imidazo[1,2-a]pyridine-2-carboxamide], over 9990 nM.
Under `Cc1c(C(=O)NC2(C)CCS(=O)(=O)CC2)nc2ccc(Oc3ncc(Cl)cc3OCC(F)(F)F)cn12` [Example 61, 6-[[5-chloro-3-(2,2,2-trifluoroethoxy)-2-pyridyl]oxy]-3-methyl-N-(4-methyl-1,1-dioxo-thian-4-yl)imidazo[1,2-a]pyridine-2-carboxamide] stands 3 nM; under `Cc1c(C(=O)NC2(CC(F)(F)F)CCS(=O)(=O)CC2)nc2ccc(Oc3ncc(F)cc3OCC(F)F)cn12` [Example 62, 6-[[3-(2,2-difluoroethoxy)-5-fluoro-2-pyridyl]oxy]-N-[1,1-dioxo-4-(2,2,2-trifluoroethyl)thian-4-yl]-3-methyl-imidazo[1,2-a]pyridine-2-carboxamide], 1.5 nM.
Under `Cc1c(C(=O)NC2(C)CCS(=O)(=O)C(C)(C)C2)nc2ccc(Oc3ncc(F)cc3OCC(F)F)cn12` (stereo not drawn) [Example 64] stands 1.7 nM.
The compound `Cc1c(C(=O)NC2(C(C)C)CCS(=O)(=O)CC2)nc2ccc(Oc3ncc(F)cc3OCC(F)F)cn12` [Example 65, 6-[[3-(2,2-difluoroethoxy)-5-fluoro-2-pyridyl]oxy]-N-(4-isopropyl-1,1-dioxo-thian-4-yl)-3-methyl-imidazo[1,2-a]pyridine-2-carboxamide] had an IC50 of 434 nM.
Under `CCC1(NC(=O)c2nc3ccc(Oc4ncc(F)cc4OCC(F)F)cn3c2C)CCS(=O)(=O)CC1` [Example 66, 6-[[3-(2,2-difluoroethoxy)-5-fluoro-2-pyridyl]oxy]-N-(4-ethyl-1,1-dioxo-thian-4-yl)-3-methyl-imidazo[1,2-a]pyridine-2-carboxamide] stands 0.8 nM; under `Cc1c(C(=O)NC2(C)CCS(=O)(=O)CC2)nc2ccc(Oc3ncc(F)cc3OCC3(F)CC3)cn12` [Example 68], 0.8 nM.
`CCOc1cc(Cl)cnc1Oc1ccc2nc(C(=O)NC3(C)CS(=O)(=O)C3)c(C)n2c1` [Example 69, 6-[(5-chloro-3-ethoxy-2-pyridyl)oxy]-3-methyl-N-(3-methyl-1,1-dioxo-thietan-3-yl)imidazo[1,2-a]pyridine-2-carboxamide] yielded an IC50 of 2 nM.
Under `CCC1(NC(=O)c2nc3ccc(Oc4ncc(F)cc4OCC(F)F)cn3c2C)CS(=O)(=O)C1` [Example 70, 6-[[3-(2,2-difluoroethoxy)-5-fluoro-2-pyridyl]oxy]-N-(3-ethyl-1,1-dioxo-thietan-3-yl)-3-methyl-imidazo[1,2-a]pyridine-2-carboxamide] stands 74.3 nM; under `Cc1c(C(=O)NC2(C)CCS(=O)(=O)CC2)nc2ccc(Oc3ncc(Cl)cc3OCC(F)F)cn12` [Example 71, 6-[[5-chloro-3-(2,2-difluoroethoxy)-2-pyridyl]oxy]-3-methyl-N-(4-methyl-1,1-dioxo-thian-4-yl)imidazo[1,2-a]pyridine-2-carboxamide], 1.4 nM; under `Cc1c(C(=O)NC2(C)CCS(=O)(=O)CC2)nc2ccc(Oc3ncc(F)cc3OCC(F)F)cn12` [Example 73, 6-[[3-(2,2-difluoroethoxy)-5-fluoro-2-pyridyl]oxy]-3-methyl-N-(4-methyl-1,1-dioxo-thian-4-yl)imidazo[1,2-a]pyridine-2-carboxamide], 2.6 nM.
Compound `Cc1c(C(=O)NC2(C)CS(=O)(=O)C2)nc2ccc(Oc3ncc(F)cc3OCC(F)F)cn12` [Example 74, 6-[[3-(2,2-difluoroethoxy)-5-fluoro-2-pyridyl]oxy]-3-methyl-N-(3-methyl-1,1-dioxo-thietan-3-yl)imidazo[1,2-a]pyridine-2-carboxamide] returned an IC50 of 6.7 nM.
For the compound `Cc1c(C(=O)NC2(C)CCS(=O)(=O)CC2)nc2ccc(Oc3ncc(C(C)C)cc3OCC(F)(F)F)cn12` [Example 75, 6-[[5-isopropyl-3-(2,2,2-trifluoroethoxy)-2-pyridyl]oxy]-3-methyl-N-(4-methyl-1,1-dioxo-thian-4-yl)imidazo[1,2-a]pyridine-2-carboxamide], the IC50 was 6.6 nM.
Under `Cc1c(C(=O)NC2(CC#N)CCS(=O)(=O)CC2)nc2ccc(Oc3ncc(Cl)cc3OCC(F)F)cn12` [Example 76, 6-[[5-chloro-3-(2,2-difluoroethoxy)-2-pyridyl]oxy]-N-[4-(cyanomethyl)-1,1-dioxo-thian-4-yl]-3-methyl-imidazo[1,2-a]pyridine-2-carboxamide] stands 1.2 nM; under `CCC1(NC(=O)c2nc3ccc(Oc4ncc(F)cc4OCC(F)(F)F)cn3c2C)CCS(=O)(=O)CC1` [Example 77, N-(4-ethyl-1,1-dioxo-thian-4-yl)-6-[[5-fluoro-3-(2,2,2-trifluoroethoxy)-2-pyridyl]oxy]-3-methyl-imidazo[1,2-a]pyridine-2-carboxamide], 33 nM; under `Cc1cnc(Oc2ccc3nc(C(=O)NC4(C)CCS(=O)(=O)CC4)c(C)n3c2)c(OCC(F)(F)F)n1` [Example 78, 3-methyl-N-(4-methyl-1,1-dioxo-thian-4-yl)-6-[5-methyl-3-(2,2,2-trifluoroethoxy)pyrazin-2-yl]oxy-imidazo[1,2-a]pyridine-2-carboxamide], 3 nM.
Turning to `CCc1cnc(Oc2ccc3nc(C(=O)NC4(C)CS(=O)(=O)C4)c(C)n3c2)c(OCC(F)(F)F)c1` [Example 79, 6-[[5-ethyl-3-(2,2,2-trifluoroethoxy)-2-pyridyl]oxy]-3-methyl-N-(3-methyl-1,1-dioxo-thietan-3-yl)imidazo[1,2-a]pyridine-2-carboxamide], the IC50 was determined as 6.8 nM.
Under `Cc1c(C(=O)NC2CS(=O)(=O)C2(C)C)nc2ccc(Oc3ncc(Cl)cc3OCC(F)F)cn12` (stereo not drawn) [Example 80, 6-[[5-chloro-3-(2,2-difluoroethoxy)-2-pyridyl]oxy]-N-(2,2-dimethyl-1,1-dioxo-thietan-3-yl)-3-methyl-imidazo[1,2-a]pyridine-2-carboxamide] stands 3.8 nM.

Source of the values: patent US20260176267A1, “PREPARATION OF IMIDAZOPYRIDINE AND IMIDAZOPYRIDAZINE DERIVATIVES AS NOVEL DIACYLGLYCERIDE O-ACYLTRANSFERASE 2 INHIBITORS” (Merck Sharp & Dohme LLC, priority 2022, published 2026).
